Values quoted from earlier work, collected in publication PMC7870075, “Physicochemical properties and formulation development of a novel compound inhibiting Staphylococcus aureus biofilm formation” (PLoS ONE, 2021).

Parameters: method as in PMID 23433668
Conditions: cited from earlier work

In the case of `C=CCn1c(NCC)nc2c(c1=O)C(C)(C)Cc1cc(OC)ccc1-2` [CCG-203592], the “half-life in mouse liver microsomes (t1/2)” value is listed as 48 s.
